Data reported in PubChem BioAssay (NCI).
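How tested: cells in 96-well plates exposed to compound for 48 hours at five concentrations. TGI marks complete inhibition of growth.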

How the values were obtained:
Assay in all cases: NCI anticancer screen, dose series, 48 h
SR leukemia = tested on: SR leukemia
KM12 colon = tested on: KM12 colon
NCI-H226 lung = tested on: NCI-H226 lung
CCRF-CEM leukemia = tested on: CCRF-CEM leukemia
EKVX NSCLC = tested on: EKVX NSCLC
RPMI-8226 leukemia = tested on: RPMI-8226 leukemia
T-47D breast = tested on: T-47D breast
MOLT-4 leukemia = tested on: MOLT-4 leukemia
MDA-MB-231 breast = tested on: MDA-MB-231 breast
CAKI-1 renal = tested on: CAKI-1 renal
SF-539 CNS = tested on: SF-539 CNS
NCI-H460 lung = tested on: NCI-H460 lung
HOP-62 NSCLC = tested on: HOP-62 NSCLC
M14 melanoma = tested on: M14 melanoma
K-562 leukemia = tested on: K-562 leukemia
NCI/ADR-RES ovarian = tested on: NCI/ADR-RES ovarian
OVCAR-5 ovarian = tested on: OVCAR-5 ovarian
SW-620 colon = tested on: SW-620 colon
SK-MEL-5 melanoma = tested on: SK-MEL-5 melanoma
786-0 renal = tested on: 786-0 renal
BT-549 breast = tested on: BT-549 breast
UACC-62 melanoma = tested on: UACC-62 melanoma
HOP-92 NSCLC = tested on: HOP-92 NSCLC
DU-145 prostate = tested on: DU-145 prostate
SK-OV-3 ovarian = tested on: SK-OV-3 ovarian
MALME-3M melanoma = tested on: MALME-3M melanoma
A549 NSCLC = tested on: A549 NSCLC
NCI-H23 lung = tested on: NCI-H23 lung
LOX IMVI melanoma = tested on: LOX IMVI melanoma
COLO 205 colon = tested on: COLO 205 colon
PC-3 prostate = tested on: PC-3 prostate
SN12C renal = tested on: SN12C renal
OVCAR-3 ovarian = tested on: OVCAR-3 ovarian
RXF 393 renal = tested on: RXF 393 renal
UACC-257 melanoma = tested on: UACC-257 melanoma
UO-31 renal = tested on: UO-31 renal
MCF7 breast = tested on: MCF7 breast
IGROV1 ovarian = tested on: IGROV1 ovarian
MDA-N = tested on: MDA-N
HS 578T breast = tested on: HS 578T breast
OVCAR-4 ovarian = tested on: OVCAR-4 ovarian
SK-MEL-2 melanoma = tested on: SK-MEL-2 melanoma
NCI-H522 lung = tested on: NCI-H522 lung
HT29 colon = tested on: HT29 colon
HL-60(TB) leukemia = tested on: HL-60(TB) leukemia
U251 CNS = tested on: U251 CNS
SF-295 CNS = tested on: SF-295 CNS
HCT-116 colon = tested on: HCT-116 colon
SF-268 CNS = tested on: SF-268 CNS
SNB-19 CNS = tested on: SNB-19 CNS
OVCAR-8 ovarian = tested on: OVCAR-8 ovarian
MDA-MB-435 = tested on: MDA-MB-435
TK-10 renal = tested on: TK-10 renal
HCT-15 colon = tested on: HCT-15 colon
ACHN renal = tested on: ACHN renal
SK-MEL-28 melanoma = tested on: SK-MEL-28 melanoma
SNB-75 CNS = tested on: SNB-75 CNS
A498 renal = tested on: A498 renal

## CC(=O)N1N=C(c2cc(C)ccc2O)CC1c1cccc(Cl)c1 (stereo not given)
SR leukemia
  TGI: 9.42 µM
KM12 colon
  TGI: > 100 µM
NCI-H226 lung
  TGI: 58.8 µM
CCRF-CEM leukemia
  TGI: 57.8 µM
EKVX NSCLC
  TGI: 91.8 µM
RPMI-8226 leukemia
  TGI: 26.5 µM
T-47D breast
  TGI: > 100 µM
MOLT-4 leukemia
  TGI: 28 µM
MDA-MB-231 breast
  TGI: 82.4 µM
CAKI-1 renal
  TGI: > 100 µM
SF-539 CNS
  TGI: 69.8 µM
NCI-H460 lung
  TGI: 61.9 µM
HOP-62 NSCLC
  TGI: > 100 µM
M14 melanoma
  TGI: 84 µM
K-562 leukemia
  TGI: > 100 µM
NCI/ADR-RES ovarian
  TGI: 61.2 µM
OVCAR-5 ovarian
  TGI: > 100 µM
SW-620 colon
  TGI: 93.5 µM
SK-MEL-5 melanoma
  TGI: 27.8 µM
786-0 renal
  TGI: > 100 µM
BT-549 breast
  TGI: > 100 µM
UACC-62 melanoma
  TGI: 35.2 µM
HOP-92 NSCLC
  TGI: 37 µM
DU-145 prostate
  TGI: > 100 µM
SK-OV-3 ovarian
  TGI: 54.9 µM
MALME-3M melanoma
  TGI: 62.1 µM
A549 NSCLC
  TGI: 47.4 µM
NCI-H23 lung
  TGI: 68.1 µM
LOX IMVI melanoma
  TGI: 39.6 µM
COLO 205 colon
  TGI: 21.9 µM
PC-3 prostate
  TGI: 66.1 µM
SN12C renal
  TGI: 77 µM
OVCAR-3 ovarian
  TGI: > 100 µM
RXF 393 renal
  TGI: 34.2 µM
UACC-257 melanoma
  TGI: 41.6 µM
UO-31 renal
  TGI: 50.3 µM
MCF7 breast
  TGI: 34.6 µM
IGROV1 ovarian
  TGI: 8.45 µM
MDA-N
  TGI: 5.44 µM
HS 578T breast
  TGI: 43 µM
OVCAR-4 ovarian
  TGI: 54.8 µM
SK-MEL-2 melanoma
  TGI: 28.8 µM
NCI-H522 lung
  TGI: 14.3 µM
HT29 colon
  TGI: 40.2 µM
HL-60(TB) leukemia
  TGI: 42.4 µM
U251 CNS
  TGI: 39.7 µM
SF-295 CNS
  TGI: 65 µM
HCT-116 colon
  TGI: > 100 µM
SF-268 CNS
  TGI: 50.5 µM
SNB-19 CNS
  TGI: 28.5 µM
OVCAR-8 ovarian
  TGI: > 100 µM
MDA-MB-435
  TGI: 4.05 µM
TK-10 renal
  TGI: 68.7 µM
HCT-15 colon
  TGI: 5.51 µM
ACHN renal
  TGI: 47.8 µM

## CC1=CC(=O)C(=C(C)C)CC1
SR leukemia
  TGI: > 100 µM
KM12 colon
  TGI: > 100 µM
NCI-H226 lung
  TGI: > 100 µM
CCRF-CEM leukemia
  TGI: > 100 µM
EKVX NSCLC
  TGI: > 100 µM
T-47D breast
  TGI: > 100 µM
MOLT-4 leukemia
  TGI: > 100 µM
MDA-MB-231 breast
  TGI: > 100 µM
CAKI-1 renal
  TGI: > 100 µM
NCI-H460 lung
  TGI: > 100 µM
HOP-62 NSCLC
  TGI: > 100 µM
M14 melanoma
  TGI: > 100 µM
K-562 leukemia
  TGI: > 100 µM
NCI/ADR-RES ovarian
  TGI: > 100 µM
OVCAR-5 ovarian
  TGI: > 100 µM
SK-MEL-5 melanoma
  TGI: > 100 µM
786-0 renal
  TGI: > 100 µM
BT-549 breast
  TGI: > 100 µM
UACC-62 melanoma
  TGI: > 100 µM
SK-MEL-28 melanoma
  TGI: > 100 µM
DU-145 prostate
  TGI: > 100 µM
SNB-75 CNS
  TGI: > 100 µM
SK-OV-3 ovarian
  TGI: > 100 µM
MALME-3M melanoma
  TGI: > 100 µM
A549 NSCLC
  TGI: > 100 µM
NCI-H23 lung
  TGI: > 100 µM
LOX IMVI melanoma
  TGI: > 100 µM
PC-3 prostate
  TGI: > 100 µM
SN12C renal
  TGI: > 100 µM
OVCAR-3 ovarian
  TGI: > 100 µM
RXF 393 renal
  TGI: > 100 µM
UACC-257 melanoma
  TGI: > 100 µM
UO-31 renal
  TGI: > 100 µM
MCF7 breast
  TGI: > 100 µM
IGROV1 ovarian
  TGI: > 100 µM
MDA-N
  TGI: > 100 µM
HS 578T breast
  TGI: > 100 µM
OVCAR-4 ovarian
  TGI: > 100 µM
NCI-H522 lung
  TGI: > 100 µM
HT29 colon
  TGI: > 100 µM
HL-60(TB) leukemia
  TGI: > 100 µM
U251 CNS
  TGI: > 100 µM
SF-295 CNS
  TGI: > 100 µM
HCT-116 colon
  TGI: > 100 µM
SF-268 CNS
  TGI: > 100 µM
SNB-19 CNS
  TGI: > 100 µM
OVCAR-8 ovarian
  TGI: > 100 µM
MDA-MB-435
  TGI: > 100 µM
TK-10 renal
  TGI: > 100 µM
HCT-15 colon
  TGI: > 100 µM
ACHN renal
  TGI: > 100 µM

## O=c1n(N=S(=O)(c2ccccc2)c2ccccc2)c(=O)n2n1C1C=CC2CC1
SR leukemia
  TGI: > 100 µM
KM12 colon
  TGI: > 100 µM
NCI-H226 lung
  TGI: > 100 µM
CCRF-CEM leukemia
  TGI: > 100 µM
EKVX NSCLC
  TGI: > 100 µM
RPMI-8226 leukemia
  TGI: > 100 µM
T-47D breast
  TGI: > 100 µM
MOLT-4 leukemia
  TGI: > 100 µM
MDA-MB-231 breast
  TGI: > 100 µM
CAKI-1 renal
  TGI: > 100 µM
SF-539 CNS
  TGI: > 100 µM
NCI-H460 lung
  TGI: > 100 µM
HOP-62 NSCLC
  TGI: > 100 µM
M14 melanoma
  TGI: > 100 µM
K-562 leukemia
  TGI: > 100 µM
NCI/ADR-RES ovarian
  TGI: > 100 µM
OVCAR-5 ovarian
  TGI: > 100 µM
SW-620 colon
  TGI: > 100 µM
SK-MEL-5 melanoma
  TGI: > 100 µM
786-0 renal
  TGI: > 100 µM
BT-549 breast
  TGI: > 100 µM
UACC-62 melanoma
  TGI: > 100 µM
HOP-92 NSCLC
  TGI: > 100 µM
SK-MEL-28 melanoma
  TGI: > 100 µM
DU-145 prostate
  TGI: > 100 µM
SNB-75 CNS
  TGI: > 100 µM
SK-OV-3 ovarian
  TGI: > 100 µM
A549 NSCLC
  TGI: > 100 µM
NCI-H23 lung
  TGI: > 100 µM
LOX IMVI melanoma
  TGI: > 100 µM
COLO 205 colon
  TGI: > 100 µM
PC-3 prostate
  TGI: > 100 µM
SN12C renal
  TGI: > 100 µM
OVCAR-3 ovarian
  TGI: > 100 µM
UACC-257 melanoma
  TGI: > 100 µM
UO-31 renal
  TGI: > 100 µM
MCF7 breast
  TGI: > 100 µM
IGROV1 ovarian
  TGI: > 100 µM
A498 renal
  TGI: > 100 µM
MDA-N
  TGI: > 100 µM
HS 578T breast
  TGI: > 100 µM
SK-MEL-2 melanoma
  TGI: > 100 µM
HT29 colon
  TGI: > 100 µM
HL-60(TB) leukemia
  TGI: > 100 µM
U251 CNS
  TGI: > 100 µM
SF-295 CNS
  TGI: > 100 µM
HCT-116 colon
  TGI: > 100 µM
SF-268 CNS
  TGI: > 100 µM
SNB-19 CNS
  TGI: > 100 µM
OVCAR-8 ovarian
  TGI: > 100 µM
MDA-MB-435
  TGI: > 100 µM
TK-10 renal
  TGI: > 100 µM
HCT-15 colon
  TGI: > 100 µM
ACHN renal
  TGI: > 100 µM
